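Five concentrations, 48 hours, 96-well plates. Abbreviation: GI50, concentration required for 50% inhibition of growth. TGI marks complete inhibition of growth.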
Columns and labels:
Assay in all cases: NCI tumour cell line growth inhibition, 48 h
MOLT-4 leukemia = system: MOLT-4 leukemia
NCI-H460 lung = system: NCI-H460 lung
786-0 renal = system: 786-0 renal
HOP-62 NSCLC = system: HOP-62 NSCLC
HT29 colon = system: HT29 colon
ACHN renal = system: ACHN renal
EKVX NSCLC = system: EKVX NSCLC
SK-MEL-5 melanoma = system: SK-MEL-5 melanoma
HOP-92 NSCLC = system: HOP-92 NSCLC
OVCAR-8 ovarian = system: OVCAR-8 ovarian
SW-620 colon = system: SW-620 colon
RXF 393 renal = system: RXF 393 renal
NCI-H23 lung = system: NCI-H23 lung
SNB-75 CNS = system: SNB-75 CNS
SNB-19 CNS = system: SNB-19 CNS
OVCAR-3 ovarian = system: OVCAR-3 ovarian
UACC-257 melanoma = system: UACC-257 melanoma
NCI/ADR-RES ovarian = system: NCI/ADR-RES ovarian
SK-OV-3 ovarian = system: SK-OV-3 ovarian
IGROV1 ovarian = system: IGROV1 ovarian
TK-10 renal = system: TK-10 renal
MALME-3M melanoma = system: MALME-3M melanoma
SK-MEL-28 melanoma = system: SK-MEL-28 melanoma
SN12C renal = system: SN12C renal
HCT-116 colon = system: HCT-116 colon
MDA-MB-468 breast = system: MDA-MB-468 breast
M14 melanoma = system: M14 melanoma
K-562 leukemia = system: K-562 leukemia
UACC-62 melanoma = system: UACC-62 melanoma
SF-295 CNS = system: SF-295 CNS

Compound: Cn1cc(-c2cc(N)n3nc(-c4c[nH]c5ccccc45)cc3n2)c2cc(Cl)ccc21
- TGI (MOLT-4 leukemia): 5.24 µM
- GI50 (NCI-H460 lung): 2.35 µM
- TGI (NCI-H460 lung): 5.45 µM
- GI50 (786-0 renal): 1.6 µM
- TGI (786-0 renal): 3.2 µM
- GI50 (HOP-62 NSCLC): 2.84 µM
- TGI (HOP-62 NSCLC): 10.8 µM
- GI50 (HT29 colon): 1.76 µM
- TGI (HT29 colon): 3.43 µM
- GI50 (ACHN renal): 2.98 µM
- TGI (ACHN renal): 10.6 µM
- GI50 (EKVX NSCLC): 2.8 µM
- TGI (EKVX NSCLC): 12.5 µM
- GI50 (SK-MEL-5 melanoma): 7.16 µM
- TGI (SK-MEL-5 melanoma): 19.7 µM
- GI50 (HOP-92 NSCLC): 2.73 µM
- TGI (HOP-92 NSCLC): 9.96 µM
- GI50 (OVCAR-8 ovarian): 3.53 µM
- TGI (OVCAR-8 ovarian): 14.2 µM
- GI50 (SW-620 colon): 2 µM
- TGI (SW-620 colon): 3.92 µM
- GI50 (RXF 393 renal): 2.47 µM
- TGI (RXF 393 renal): 8.46 µM
- GI50 (NCI-H23 lung): 2.45 µM
- TGI (NCI-H23 lung): 7.38 µM
- GI50 (SNB-75 CNS): 4 µM
- TGI (SNB-75 CNS): 18.3 µM
- GI50 (SNB-19 CNS): 4.32 µM
- TGI (SNB-19 CNS): 16.3 µM
- GI50 (OVCAR-3 ovarian): 4.75 µM
- TGI (OVCAR-3 ovarian): 29.6 µM
- GI50 (UACC-257 melanoma): 10.6 µM
- TGI (UACC-257 melanoma): 23.5 µM
- GI50 (NCI/ADR-RES ovarian): 2.85 µM
- TGI (NCI/ADR-RES ovarian): 9.09 µM
- GI50 (SK-OV-3 ovarian): 15.9 µM
- TGI (SK-OV-3 ovarian): 43 µM
- GI50 (IGROV1 ovarian): 3.61 µM
- TGI (IGROV1 ovarian): 14.6 µM
- GI50 (TK-10 renal): 4.34 µM
- TGI (TK-10 renal): 15.7 µM
- GI50 (MALME-3M melanoma): 3.93 µM
- TGI (MALME-3M melanoma): 14.3 µM
- GI50 (SK-MEL-28 melanoma): 7.16 µM
- TGI (SK-MEL-28 melanoma): 19.9 µM
- GI50 (SN12C renal): 5.3 µM
- TGI (SN12C renal): 18.8 µM
- GI50 (HCT-116 colon): 1.84 µM
- TGI (HCT-116 colon): 3.5 µM
- GI50 (MDA-MB-468 breast): 1.89 µM
- TGI (MDA-MB-468 breast): 4.59 µM
- GI50 (M14 melanoma): 2.15 µM
- TGI (M14 melanoma): 4.93 µM
- GI50 (K-562 leukemia): 2.27 µM
- TGI (K-562 leukemia): 5.68 µM
- GI50 (UACC-62 melanoma): 5.36 µM
- TGI (UACC-62 melanoma): 18.7 µM
- GI50 (SF-295 CNS): 1.87 µM
- TGI (SF-295 CNS): 3.79 µM
